Experimental data: patent US20230280275A1, “PHOTOACTIVATABLE VIBRATIONAL PROBES AND USES THEREOF” (California Institute of Technology, priority 2021, published 2023)

Key:
[1] = Spontaneous Raman / hyperspectral SRS spectroscopy of probes and uncaged alkynes; format: physicochemical
Text: An integrated laser (picoEMERALD, Applied Physics and Electronics, Inc.) was used as a light source for both pump and Stokes beams. It produces 2 ps pump (tunable from 770 nm - 990 nm, bandwidth 0.5 nm, spectral bandwidth ~ 7 cm-1 ) and Stokes (1031.2 nm, spectral bandwidth 10 cm-1 ) beams with 80 MHz repetition rate. Stokes beam is modulated at 20 MHz by an internal electro-optic modulator. The spatially and temporally overlapped pump and Stokes beams are introduced into an inverted multiphoton laser scanning microscopy (FV3000, Olympus), and then focused onto the sample by a 25X water objective (XLPLN25XWMP, 1.05 N.A., Olympus). Transmitted pump and Stokes beams are collected by a high N.A. condenser lens (oil immersion, 1.4 N.A., Olympus) and pass through a bandpass filter (893/209 BrightLine, 25 mm, AVR Optics) to filter out Stokes beam. A large area (10×10 mm) Si photodiode (S3590-09, Hamamatsu) is used to measure the remaining pump beam intensity. 64 V DC voltage was used on the photodiode to increase saturation threshold and reduce response time. The output current is terminated by a 50 Ω terminator and pre-filtered by an 19.2-23.6-MHz band-pass filter (BBP-21.4+, Mini-Circuits) to reduce laser and scanning noise. The signal is then demodulated by a lock-in amplifier (SR844, Stanford Research Systems) at the modulation frequency. The in-phase X output is fed back to the Olympus IO interface box (FV30-ANALOG) of the microscope. Image acquisition speed is limited by 30 µs time constant set for the lock-in amplifier. Correspondingly, we use 80 µs pixel dwell time, which gives a speed of 8.5 s frame-1 for a 320-by-320-pixel field of view. Laser powers are monitored through image acquisition by an internal power meter and power fluctuation are controlled within 5% by the laser system. 16-bit grey scale images are acquired by Fluoview software. SRS spectra were acquired by fixing the Stokes beam at 1031.2 nm and scanning the pump beam through the designated wavelength range point by point. 10 mM EdU (H2O) sample was used as a standard to give RIE of different probes. Fluorescence images were collected using the same Olympus FV3000 confocal microscope with CW laser excitation (405, 488, 561 and 640 nm, Coherent OBIS LX laser) and standard bandpass filter sets. The correlation coefficients (Pearson’s R value) between SRS images and fluorescence images were calculated using ‘Coloc 2’ tool of ImageJ.
To perform spontaneous Raman spectroscopy, spontaneous Raman spectra were acquired using an upright confocal Raman spectrometer (Horiba Raman microscope; Xplora plus). A 532 nm YAG laser is used to illuminate the sample with a power of 12 mW on sample through a 100 x, N.A. 0.9 objective (MPLANN; Olympus) with 100 µm slit and 500 µm hole. Spectro/Raman shift center was set to be 2000.04 cm-1 . With a 1200 grating, Raman shift ranges from 690.81 cm-1 to 3141.49 cm-1 was acquired to cover whole biological relevant Raman peaks. The acquired spectra were processed by the LabSpec 6 software for baseline correction.
Cyclopropenone caging has been previously adopted for photoactivation and subsequent biorthogonal labeling of fluorophores in fluorescence microscopy. […] Herein the alkyne Raman signal generation from photo-DIBO light-activation was first measured (FIG. 1A). […] Compared to 5-ethynyl-2′-deoxyuridine (EdU), the well-adopted benchmark for Raman intensity quantification, the relative Raman intensity to EdU (RIE) of the strained alkyne DIBO is only 1.8 (Table 1). […] Given this, it is reasoned that diphenylcyclopropenone (i.e. cyclopropenone-caged 1-yne, 1-cyclo, 1, FIG. 1A) should be a better photoactivatable Raman scaffold with higher Raman sensitivity after uncaging. Indeed, UV-uncaging of 1-cyclo (1), which started from a similarly weak Raman peak at 1860 cm^-1 from photo-DIBO, produced an intense sharp peak for 1-yne (2) at 2226 cm^-1 (FIG. 1B, dashed black vs solid blue spectra) with an improved RIE values to about 4

[2] = UV-Vis absorption spectra; format: physicochemical; settings: 20 uM in DMSO
Experimental: UV-Vis absorption spectra were recorded on a Varian Cary 50 UV-Vis Spectrophotometer (Agilent).

[3] = Photoactivation (UV-uncaging) monitored by time-series spontaneous Raman spectra; format: physicochemical; settings: 365 nm illumination (15 mW/cm^2); increase of alkyne peak 2226 cm^-1
Experimental: The 365 nm UV light used to activate cyclopropenones comes from a UV handlamp (Analytik Jena UVP EL Series Lamp, UVLS-24, 4 Watt, 2 UV 254/365 nm, typically used for TLC monitoring in organic synthesis). The power of 365 nm UV of this handlamp was measured to be 15 mW/cm2 on samples.
Next, the photo-uncaging kinetics for both 1-cyclo (1) and 2-cyclo (3) were compared. […] With 365 nm lamp illumination, the characteristic peaks of cyclopropenones (~1860 cm^-1) continue to drop while the alkyne peaks (2226 cm^-1) gradually increase for both molecules (FIG. 1D). […] The progression of the UV-activation reactions could also be confirmed by the change in the corresponding absorption spectra (FIG. 6).

live HeLa cells [4] = assay: SRS imaging of live HeLa cells incubated with unmethylated probes before and after 405 nm illumination; format: cell-based; settings: 20 µM, 30 minutes of labeling; 2226 cm^-1 channel after 405 nm
Experimental: FIG. 7 provides exemplary results from SRS imaging of live HeLa cells incubated with 1-cyclo (1, 20 µM, 30 minutes of labeling, top) and Cyclo-Mito (7, 20 µM, 30 minutes of labeling, bottom) at the CH3 (2940 cm^-1) channel, and the expected uncaged alkyne channel (2226 cm^-1) before and after 405 nm illumination. Scale bar: 10 µm.
An integrated laser (picoEMERALD, Applied Physics and Electronics, Inc.) was used as a light source for both pump and Stokes beams. It produces 2 ps pump (tunable from 770 nm - 990 nm, bandwidth 0.5 nm, spectral bandwidth ~ 7 cm-1 ) and Stokes (1031.2 nm, spectral bandwidth 10 cm-1 ) beams with 80 MHz repetition rate. Stokes beam is modulated at 20 MHz by an internal electro-optic modulator. […] Laser powers are monitored through image acquisition by an internal power meter and power fluctuation are controlled within 5% by the laser system. […] Fluorescence images were collected using the same Olympus FV3000 confocal microscope with CW laser excitation (405, 488, 561 and 640 nm, Coherent OBIS LX laser) and standard bandpass filter sets. The correlation coefficients (Pearson’s R value) between SRS images and fluorescence images were calculated using ‘Coloc 2’ tool of ImageJ.

[5] = reported value; cited from earlier work
live HeLa cells [6] = assay: Time lapse (pulse-chase) imaging of retained signal after photoactivation; format: cell-based; settings: after 2 hours of chasing, 0 h = 100%
Experimental: FIG. 20 illustrates labeling signal and specificity evaluation during 2 hours of time lapse imaging in photoactivated Me-Mito-^13C (16) labeled live HeLa cells. Panel (a) is a plot showing quantification of retained signals after 1 hour and 2 hours imaging. The values of signals at 0 h were used as 100% signal reference. n = 6 independent experiments. Data shown as mean ± SEM. Panel (b) includes a series of representative time lapse imaging. The magnified images of the bottom cell (indicated by the dashed white box) are shown. Scale bar: 10 µm. The high mitochondria-labeling specificity of the mitochondria probe was confirmed for relatively long-term pulse-chase tracking applications. More than 85% of activated Me-Mito-^13C (16) signals retained in live HeLa cells after 2 hours of chasing ([…]) with well-maintained mitochondria labeling pattern (FIG. 20, panel b). In live HeLa cells labeled with Me-Mito-^13C (16), 405 nm laser was first used to pulse-activate the selected region of a single cell for 20 seconds (FIG. 5A, CH3, the white dashed box indicates the activation area). Immediately after photoactivation, SRS imaging at 2125 cm^-1 well resolved the distribution of mitochondria only from this activated subcellular region (FIG. 5A, Mito0 min, Pulse), implying high spatial selectivity. […]

Row | Structure (SMILES) | RIE (relative Raman intensity to EdU) ([1]; 10 mM EdU (H2O) as standard) | Raman Peak ([1]; cell silent region, model systems) [cm⁻¹] | Abs [2] [nm] | εabs [2] [M⁻¹ cm⁻¹] | uncaging kinetics k [3] [s⁻¹] | uncaging signals in labeled live cells (live HeLa cells [4]) | quantum yield [5] | alkyne Raman peak / SRS channel after uncaging ([1]; organelle probes after UV / 405 nm uncaging) [cm⁻¹] | activated signals retained (live HeLa cells [6])
1 | O=c1c(-c2ccccc2)c1-c1ccccc1 [1-cyclo (1), diphenylcyclopropenone] | 0.37 | 1860 | 302 | 28600 | 0.0044 | did not produce any observable uncaging signals | 0.78 |  | 
2 | Cc1cc(C)c(-[13c]2c(=O)[13c]2-c2c(C)cc(OCCC[P+](c3ccccc3)(c3ccccc3)c3ccccc3)cc2C)c(C)c1.[Br-] [Me-Mito-^13C (16)] |  |  |  |  |  |  |  | 2125 | More than 85%
